Type in all cases: biochemical
For one assay, the target named is T1, HDAC4 (Homo sapiens, UniProt P56524).
T1 construct: TwinStrep-FLAG-HALO (N, cleaved yes); made in house; host or cells: HEK293/T17
Description: Fluorometric HDAC inhibition assay, HDAC4. As to conditions: purified human protein; Boc-[Lys-TFA]-AMC substrate 10 μM; 15 min preincubation. On the procedure:
(§1) Large-scale expression of recombinant human HDACs was carried out as described previously.[32],[37] Briefly, HEK293/T17 cells were transiently transfected with expression pMM222 plasmids comprising N-terminally tagged (TwinStrep-FLAG-HALO tag; Figure S1) HDAC genes using linear poly(ethyleneimine) (PEI, Polysciences Inc.). Cells were harvested three days post-transfection, and cell pellets were resuspended in the lysis buffer (100 mM Tris-HCl, 10 mM NaCl, 5 mM KCl, 2 mM MgCl2, and 10% glycerol at pH 8.0). Cells were disrupted by sonication, cell lysates were cleared by centrifugation, and soluble fusion proteins were first purified by Streptactin affinity chromatography (IBA). For all HDACs but HDACs 1, 10, and 11, the N-terminal tag was cleaved off overnight by the addition of TEV protease (10:1 HDAC/TEV ratio). Size-exclusion chromatography on a Superose 6 column (GE Healthcare Bio-Sciences; running buffer 30 mM HEPES, 140 mM NaCl, 10 mM KCl, 3% glycerol, and 0.25 mM TCEP) was used as the final purification step for all HDAC constructs.
(§2) Optimized fluorometric assays were used to determine inhibition constants of studied compounds against individual HDAC isoforms as described previously.[32] Briefly, reactions were performed in the activity buffer comprising 50 mM HEPES, 140 mM NaCl, and 10 mM KCl at pH 7.4 supplemented with 1 mg mL^–1 bovine serum albumin (BSA), 1 mM tris(2-carboxyethyl)phosphine (TCEP), 10 μM substrates, and optimized concentrations of HDACs. The Ac-Gly-Ala-[Lys-Ac]-7-amino-methylcoumarylamide (AMC) substrate was used to profile HDACs 1, 2, 3, and 6; Boc-[Lys-TFA]-7-amino-methylcoumarylamide was used for HDACs 4, 5, 7, 8, and 9 (both substrates: Bachem); fluorescein-labeled N8-acetylspermidine was used for HDAC10;[32] and an internally quenched TNFα-derived peptide derivative was used for HDAC11.[39] Deacetylation reactions were monitored either by high-performance liquid chromatography (HPLC) (HDAC10) or by quantification of released AMC (λex/λem = 365/440 nm) using a CLARIOstar plate reader (BMG Labtech GmbH).

The next assay addresses T2, HDAC5 (Homo sapiens, UniProt Q9UQL6).
T2 construct: TwinStrep-FLAG-HALO (N, cleaved yes); made in house; host or cells: HEK293/T17
Description: Fluorometric HDAC inhibition assay, HDAC5. As to conditions: purified human protein; Boc-[Lys-TFA]-AMC substrate 10 μM; 15 min preincubation. How it is done: as §1, §2

Another assay addresses T3, HDAC9 (Homo sapiens, UniProt Q9UKV0).
T3 construct: TwinStrep-FLAG-HALO (N, cleaved yes); made in house; host or cells: HEK293/T17
In words: Fluorometric HDAC inhibition assay, HDAC9. As to conditions: purified human protein; Boc-[Lys-TFA]-AMC substrate 10 μM; 15 min preincubation. On the procedure:
as §1, §2

The target in the next assay is T4, zHDAC6 (Y745F) (Danio rerio, UniProt F8W4B7, Y745F).
T4 construct: Danio rerio HDAC6 (amino acids 440–798; zHDAC6); His (N, cleaved yes); MBP (N, cleaved yes); made in house; host or cells: RIPL Escherichia coli
T4 sequence (F8W4B7 440-798 Y745F): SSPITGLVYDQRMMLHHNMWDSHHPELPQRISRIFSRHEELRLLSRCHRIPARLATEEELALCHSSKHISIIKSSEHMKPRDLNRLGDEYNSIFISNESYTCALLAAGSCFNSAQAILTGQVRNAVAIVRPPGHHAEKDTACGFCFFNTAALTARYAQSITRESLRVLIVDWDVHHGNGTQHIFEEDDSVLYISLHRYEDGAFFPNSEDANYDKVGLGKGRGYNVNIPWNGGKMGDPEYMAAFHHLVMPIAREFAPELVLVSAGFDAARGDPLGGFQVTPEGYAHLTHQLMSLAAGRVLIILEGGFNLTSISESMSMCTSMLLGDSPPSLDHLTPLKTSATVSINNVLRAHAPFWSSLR
Description: Inhibition assay, zebrafish HDAC6 catalytic DD2 domain, Y745F mutant. How it is done: The second catalytic domain of Danio rerio HDAC6 (amino acids 440–798; zHDAC6) was expressed in RIPL Escherichia coli as described previously using the pEC566-zHDAC6 expression vector.[16],[38] Briefly, bacteria were incubated at 37 °C with shaking (250 rpm) until the optical density reached an OD600 = 0.5. Then, the culture was cooled to 18 °C for 1 h, and recombinant protein expression was induced by the addition of 75 μM isopropyl β-D-1-thiogalactopyranoside together with 200 μM ZnSO4. The culture was grown at 18 °C for an additional 18 h and harvested by centrifugation at 5500g for 15 min. The cell pellet was resuspended in the lysis buffer (50 mM phosphate, 300 mM NaCl, 10% glycerol, and 20 mM imidazole at pH 8; 5 mL g^–1 bacterial pellet) and lysed by three passages through EmulsiFlex (Avestin). Cell lysates were centrifuged (15,000g at 4 °C for 20 min), and the fusion protein in the supernatant was purified via Ni-NTA chromatography. Fractions containing the His-MBP-HDAC6 fusion were concentrated to 2 mg mL^–1 and cleaved overnight by the addition of TEV protease (zHDAC6/TEV 1:20 ratio). The cleaved tag and the TEV protease were sequentially removed using amylose (New England Biolabs) and HisTrap columns (Cytiva), and zHDAC6 was further purified by size-exclusion chromatography on a HiLoad Superdex 75 pg column (GE Healthcare Bio-Sciences). Fractions containing zHDAC6 were pooled, concentrated to 10 mg mL^–1, flash-frozen in liquid nitrogen, and stored at −80 °C. The purity of protein preparations was monitored by SDS-PAGE (Figure S2).
The zHDAC6 mutants (Y745F and H574A) were constructed using the Quick-change site-directed mutagenesis protocol with the pEC566-zHDAC6 expression plasmid as a template. Both mutants were expressed and purified as described above for wild-type zHDAC6 (Figure S2).
as §2

What is called IC50 is the concentration that gives 50% inhibition. Read a low IC50 as greater potency in that assay.

T3 sequence (Q9UKV0 whole entry): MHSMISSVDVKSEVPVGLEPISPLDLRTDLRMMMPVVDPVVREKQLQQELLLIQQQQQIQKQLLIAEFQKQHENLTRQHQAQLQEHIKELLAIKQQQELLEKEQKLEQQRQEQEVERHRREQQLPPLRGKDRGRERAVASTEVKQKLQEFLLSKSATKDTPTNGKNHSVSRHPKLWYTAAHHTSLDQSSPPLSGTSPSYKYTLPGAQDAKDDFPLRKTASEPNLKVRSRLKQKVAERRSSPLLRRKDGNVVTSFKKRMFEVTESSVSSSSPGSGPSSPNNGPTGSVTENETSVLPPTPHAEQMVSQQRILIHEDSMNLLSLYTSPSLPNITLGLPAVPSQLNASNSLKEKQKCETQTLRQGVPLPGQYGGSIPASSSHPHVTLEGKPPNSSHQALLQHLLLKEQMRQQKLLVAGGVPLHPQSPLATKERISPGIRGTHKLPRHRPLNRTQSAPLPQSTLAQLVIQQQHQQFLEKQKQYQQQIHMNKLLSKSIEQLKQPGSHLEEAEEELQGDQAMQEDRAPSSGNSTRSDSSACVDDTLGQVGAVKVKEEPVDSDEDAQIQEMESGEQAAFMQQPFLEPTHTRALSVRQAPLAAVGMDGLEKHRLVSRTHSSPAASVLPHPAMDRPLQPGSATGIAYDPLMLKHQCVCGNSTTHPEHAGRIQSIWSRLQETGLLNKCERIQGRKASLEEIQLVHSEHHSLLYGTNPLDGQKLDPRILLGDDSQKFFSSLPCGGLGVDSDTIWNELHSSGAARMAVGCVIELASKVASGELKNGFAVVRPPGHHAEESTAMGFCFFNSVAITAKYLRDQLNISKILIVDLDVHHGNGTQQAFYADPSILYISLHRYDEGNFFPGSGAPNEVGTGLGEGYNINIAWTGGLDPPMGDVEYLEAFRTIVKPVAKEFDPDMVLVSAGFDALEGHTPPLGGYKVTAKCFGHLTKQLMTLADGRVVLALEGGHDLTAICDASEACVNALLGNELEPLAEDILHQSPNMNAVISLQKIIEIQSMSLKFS
T1 sequence (P56524 whole entry): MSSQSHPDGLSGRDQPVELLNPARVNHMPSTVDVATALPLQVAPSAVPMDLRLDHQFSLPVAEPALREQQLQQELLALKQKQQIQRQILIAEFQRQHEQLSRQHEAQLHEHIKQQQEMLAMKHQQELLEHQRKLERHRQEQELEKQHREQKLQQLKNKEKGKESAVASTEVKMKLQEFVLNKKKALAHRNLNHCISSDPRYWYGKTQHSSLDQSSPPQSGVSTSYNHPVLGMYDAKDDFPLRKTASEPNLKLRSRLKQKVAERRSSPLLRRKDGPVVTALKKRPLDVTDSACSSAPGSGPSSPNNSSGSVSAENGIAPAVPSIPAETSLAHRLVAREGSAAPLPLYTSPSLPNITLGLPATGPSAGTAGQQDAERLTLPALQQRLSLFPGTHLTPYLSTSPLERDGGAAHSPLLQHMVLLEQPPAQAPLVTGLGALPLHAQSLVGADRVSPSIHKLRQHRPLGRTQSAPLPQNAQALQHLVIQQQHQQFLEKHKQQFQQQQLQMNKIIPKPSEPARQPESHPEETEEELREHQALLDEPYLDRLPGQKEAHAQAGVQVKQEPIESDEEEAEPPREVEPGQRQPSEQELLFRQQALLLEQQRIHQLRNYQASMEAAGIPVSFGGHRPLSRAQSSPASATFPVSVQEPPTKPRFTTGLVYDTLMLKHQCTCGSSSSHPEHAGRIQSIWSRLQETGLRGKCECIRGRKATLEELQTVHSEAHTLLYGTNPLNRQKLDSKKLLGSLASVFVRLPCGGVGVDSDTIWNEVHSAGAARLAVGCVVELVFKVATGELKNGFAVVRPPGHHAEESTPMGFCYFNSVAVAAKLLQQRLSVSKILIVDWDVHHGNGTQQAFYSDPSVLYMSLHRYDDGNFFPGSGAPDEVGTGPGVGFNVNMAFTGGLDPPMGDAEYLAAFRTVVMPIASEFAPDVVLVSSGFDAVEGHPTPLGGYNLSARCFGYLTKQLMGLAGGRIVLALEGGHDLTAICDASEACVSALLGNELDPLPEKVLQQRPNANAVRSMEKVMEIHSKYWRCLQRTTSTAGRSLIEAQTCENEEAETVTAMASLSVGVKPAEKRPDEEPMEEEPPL
T2 sequence (Q9UQL6 whole entry): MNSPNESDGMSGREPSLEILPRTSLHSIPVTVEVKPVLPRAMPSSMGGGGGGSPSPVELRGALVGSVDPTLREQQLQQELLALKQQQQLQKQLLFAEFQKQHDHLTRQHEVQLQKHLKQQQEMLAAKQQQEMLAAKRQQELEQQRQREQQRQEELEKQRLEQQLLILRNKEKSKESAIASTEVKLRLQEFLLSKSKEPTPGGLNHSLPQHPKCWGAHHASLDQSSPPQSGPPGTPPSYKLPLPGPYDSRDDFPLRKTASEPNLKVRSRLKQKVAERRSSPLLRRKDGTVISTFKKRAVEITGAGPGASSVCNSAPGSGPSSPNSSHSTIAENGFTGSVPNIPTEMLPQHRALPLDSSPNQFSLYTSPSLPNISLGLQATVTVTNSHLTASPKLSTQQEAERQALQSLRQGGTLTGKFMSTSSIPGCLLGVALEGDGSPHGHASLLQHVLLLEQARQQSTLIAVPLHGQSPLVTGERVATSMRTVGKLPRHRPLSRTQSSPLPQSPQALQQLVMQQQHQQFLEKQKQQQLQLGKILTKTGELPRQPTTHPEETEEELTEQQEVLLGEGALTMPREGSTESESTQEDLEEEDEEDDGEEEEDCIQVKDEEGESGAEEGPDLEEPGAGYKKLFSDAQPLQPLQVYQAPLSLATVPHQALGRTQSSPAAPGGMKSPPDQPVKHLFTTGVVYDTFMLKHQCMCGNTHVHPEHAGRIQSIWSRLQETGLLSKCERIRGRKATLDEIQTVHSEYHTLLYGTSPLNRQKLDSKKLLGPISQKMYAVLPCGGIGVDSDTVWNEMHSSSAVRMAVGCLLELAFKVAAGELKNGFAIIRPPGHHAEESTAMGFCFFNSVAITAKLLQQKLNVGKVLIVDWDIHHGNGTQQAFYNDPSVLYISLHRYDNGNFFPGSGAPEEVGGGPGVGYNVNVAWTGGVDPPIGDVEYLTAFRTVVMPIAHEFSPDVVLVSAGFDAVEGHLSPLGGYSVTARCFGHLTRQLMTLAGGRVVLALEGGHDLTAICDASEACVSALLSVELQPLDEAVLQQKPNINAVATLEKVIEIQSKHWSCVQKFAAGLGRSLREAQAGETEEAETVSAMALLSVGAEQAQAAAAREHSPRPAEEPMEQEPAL

In the case of `CS(=O)(=O)N(Cc1ccc(-c2nnc(C(F)(F)F)o2)cn1)c1cccc(Cl)c1` [compound 7], the IC50 at HDAC4 is over 20 µM; against HDAC5 it was over 20 µM; against HDAC9, over 20 µM; at zHDAC6 (Y745F), 0.311 ± 0.15 µM.

As to `CS(=O)(=O)N(Cc1ccc(C(=O)NNC(=O)C(F)(F)F)cn1)c1cccc(Cl)c1` [compound 5], the IC50 against HDAC4 and at zHDAC6 (Y745F) was over 20 µM in each case.

With `CS(=O)(=O)N(Cc1ccc(-c2nnc(C(F)F)o2)cn1)c1cccc(Cl)c1` [compound 8], the IC50 was over 20 µM against HDAC4, over 20 µM on HDAC5, over 20 µM on HDAC9 and 0.075 ± 0.026 µM on zHDAC6 (Y745F).

On to `CS(=O)(=O)N(Cc1ccc(C(=O)NN)cn1)c1cccc(Cl)c1` [compound 4], for which the IC50 against HDAC4 was over 20 µM; against HDAC5, over 20 µM; against HDAC9, over 20 µM; on zHDAC6 (Y745F) it was over 50 µM.

`CS(=O)(=O)N(Cc1ccc(C(=O)NNC(=O)C(F)F)cn1)c1cccc(Cl)c1` [compound 6]: the IC50 against HDAC4 is over 20 µM; against zHDAC6 (Y745F), over 50 µM.

The record behind these values is paper PMC10367051, “Comprehensive Mechanistic View of the Hydrolysis of Oxadiazole-Based Inhibitors by Histone Deacetylase 6 (HDAC6)” (ACS Chemical Biology, 2023).
